Values of other authors, collected in patent US20090082738A1, “Natural Anti-Inflammatory Agents for Reducing Pain” (priority 2007, published 2009).

Tests used:
[1] = test system: moderate or severe knee arthritis population; details: 1500 mg of glucosamine

SMILES	clinical efficacy compared with Celebrex [1]	inhibition of cyclooxygenase (COX) (cyclooxygenase (COX))
N[C@H]1C(O)O[C@H](CO)[C@@H](O)[C@@H]1O (some centres unmarked) [glucosamine]	superior to the prescription medication Celebrex	
C/C=C(/C=O)[C@@H](CC=O)CC(=O)OCCc1ccc(O)cc1 [Oleocanthal]		non-selective inhibitor of cyclooxygenase (COX)
